The results in this text go back to patent publication US20250188123A1, “PROTEASE INHIBITORS” (Regents of the University of Minnesota, priority 2022, published 2025).

Where only a bound is given, the exact number is not on record here.

What all share (assay type): biochemical
The target of one assay is thrombin (Homo sapiens, UniProt P00734). Put plainly: Activity at thrombin proteolytic enzyme.
In another assay the target is T1, Human recombinant Casp1 (Homo sapiens, UniProt P29466).
T1 construct: purchased BioVision (Milpitas/CA, USA)
T1 sequence (P29466 120-404): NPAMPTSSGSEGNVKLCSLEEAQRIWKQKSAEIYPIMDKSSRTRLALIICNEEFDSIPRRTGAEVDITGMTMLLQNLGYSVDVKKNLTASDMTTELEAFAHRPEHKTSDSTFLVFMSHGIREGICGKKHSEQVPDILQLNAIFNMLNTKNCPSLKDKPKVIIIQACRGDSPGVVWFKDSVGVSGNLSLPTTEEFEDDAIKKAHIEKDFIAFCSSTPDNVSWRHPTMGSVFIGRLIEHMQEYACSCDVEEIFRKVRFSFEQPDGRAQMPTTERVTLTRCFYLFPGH
The assay can be described thus: In vitro caspase panel assay, Casp1. Particulars: Casp2 over Casp1, caspase panel. From the text: (§1) Human recombinant Casp1, 6, 7, and 9 were purchased from BioVision (Milpitas/CA, USA). AFC fluorogenic substrates and control peptides (AcYVAD-CHO, AcVDVAD-CHO, AcDEVD-CHO, AcVEID-CHO, and AcLEHD-CHO) were purchased from Bachem (Torrance/CA, USA). The pET23b vector encoding human caspase-3 was a gift of Dr. Michelle Arkin at University of California, San Francisco. Expression and purification of Casp3 was guided by previously described protocols (Denault J-B, Salvesen G S., Current Protocols in Protein Science, 2002, 30(1), 21.13. 1-21.13. 15). Briefly, the plasmid was transformed into E. coli Rosetta 2 pLyss DE3 cells that were cultured at 1 L scale in shake flasks. […] The typical yield for the expression, isolation, and purification was approximately 3 mg/L. The DNA encoding human caspase-2 (hCASP2, amino acids 170-452, free of the N-terminal caspase activation and recruitment domain) open reading frame (ORF) was amplified via polymerase chain reaction (PCR) from full-length hCASP2 cDNA (Origene, Rockville, MD; Cat #SC321316) using following primers: forward, 5′-[…]-3′; reverse, 5′-[…]-3′. […] Proteins were stored in 1× phosphate-buffered saline (pH 7.4) at 10 mg/mL (concentration determined using a BCA assay (Thermo Fisher Scientific)), −80° C. until further use. […]

The next assay deals with T2, Human recombinant Casp7 (Homo sapiens, UniProt P55210).
T2 construct: purchased BioVision (Milpitas/CA, USA)
T2 sequence (P55210 1-303): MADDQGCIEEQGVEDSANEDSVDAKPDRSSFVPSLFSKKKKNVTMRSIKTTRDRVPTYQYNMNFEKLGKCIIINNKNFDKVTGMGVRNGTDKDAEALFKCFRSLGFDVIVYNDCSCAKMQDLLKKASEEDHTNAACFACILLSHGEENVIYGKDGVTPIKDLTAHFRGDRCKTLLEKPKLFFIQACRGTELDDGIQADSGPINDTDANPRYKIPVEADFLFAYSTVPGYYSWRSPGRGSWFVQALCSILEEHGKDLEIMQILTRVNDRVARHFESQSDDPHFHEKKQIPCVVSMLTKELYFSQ
Put plainly: In vitro caspase panel assay, Casp7. Particulars: Casp2 over Casp7, caspase panel.
Description: as §1

The target of another assay is cathepsin B (Homo sapiens, UniProt P07858). Put plainly: Activity at cathepsin B proteolytic enzyme.

Consider `Cc1ccc2c(c1)CCN(C(=O)[C@@H](NC(=O)[C@H](CCCC(=O)O)NC(=O)C1Cc3ccccc3N1)C(C)C)[C@@H]2C(=O)N[C@H](C#N)CC(=O)O` (stereo partly drawn) [Compound 1, (8)-6-(((S)-1-((8)-1-(((S)-2-carboxy-1-cyanoethyl)carbamoyl)-6-methyl-3,4-dihydroisoquinolin-2(1H)-yl)-3-methyl-1-oxobutan-2-yl)amino)-5-((S)-indoline-2-carboxamido)-6-oxohexanoic acid], for which the activity at thrombin entry at thrombin is “weak activity”. Further, at Human recombinant Casp1, the “selective versus Casp1” value is on record as more than 2000 fold. For the same compound, the “selective versus Casp7” value on Human recombinant Casp7 was more than 2000 fold. At cathepsin B, the “activity at cathepsin B” value is recorded as “weak activity”.
